# Measurements taken from patent US20230085307A1, “PYRIDAZINONE COMPOUND AND HERBICIDE” (NISSAN CHEMICAL CORPORATION, priority 2019, published 2023).
# Columns and labels:
# windgrass [1] = experiment: Test Example 4: herbicidal effect by soil treatment (Table 19, symbol L); assay type: in vivo, windgrass (Apera spica-venti); conditions: amount of applied herbicide 320 g/ha
# Outline: (§1)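 Seeds were sown in sterilized diluvial soil and covered with about 1.5 cm of soil. An emulsion formulation diluted with water to a predetermined herbicide amount was sprayed evenly onto the soil surface. Plants grew in a greenhouse at 25° C. to 30° C., and the effect was scored three weeks after application using criteria from an earlier test.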
# Italian ryegrass [2] = experiment: Test Example 4: herbicidal effect by soil treatment (Table 19, symbol K); assay type: in vivo, Italian ryegrass (Lolium multiflorum); conditions: amount of applied herbicide 320 g/ha
# Outline: as §1
# blackgrass [3] = experiment: Test Example 5: herbicidal effect by foliage application, plastic box (Table 20, symbol J); assay type: in vivo, blackgrass (Alopecurus myosuroides); conditions: foliage application, 320 g/ha
# Outline: (§2)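 Plants sown in sterilized diluvial soil and grown 14 days in a greenhouse at 25° C to 30° C, then sprayed on the foliage with the compound's emulsion diluted in water to a predetermined herbicide amount. Injury to weeds and crops scored three weeks after application on a visual rating scale.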
# southern crabgrass [4] = experiment: Test Example 4: herbicidal effect by soil treatment (Table 19, symbol F); assay type: in vivo, southern crabgrass (Digitaria ciliaris); conditions: amount of applied herbicide 320 g/ha
# Outline: as §1
# blackgrass [5] = experiment: Test Example 4: herbicidal effect by soil treatment (Table 19, symbol J); assay type: in vivo, blackgrass (Alopecurus myosuroides); conditions: amount of applied herbicide 320 g/ha
# Outline: as §1
# Chinese sprangletop = experiment: Test Example 3: herbicidal effect by foliage application, Wagner pot (Table 18, symbol D); assay type: in vivo, chinese sprangletop (Leptochloa chinensis); conditions: amount of applied herbicide 320 g/ha
# Outline: (§3)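 Plants were sown in alluvial soil held under 0.1–0.5 cm standing water and grown 14 days in a greenhouse at 25–30 °C. An emulsifiable formulation, water-diluted to the set dose, was then sprayed onto the foliage, and effects were scored three weeks later using previously defined criteria.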
# redroot pigweed [6] = experiment: Test Example 5: herbicidal effect by foliage application, plastic box (Table 20, symbol N); assay type: in vivo, redroot pigweed (Amaranthus retroflexus); conditions: foliage application, 320 g/ha
# Outline: as §2
# barnyard grass [7] = experiment: Test Example 3: herbicidal effect by foliage application, Wagner pot (Table 18, symbol H); assay type: in vivo, barnyard grass (Echinochloa crus-galli); conditions: amount of applied herbicide 320 g/ha
# Outline: as §3
# green foxtail [8] = experiment: Test Example 4: herbicidal effect by soil treatment (Table 19, symbol G); assay type: in vivo, green foxtail (Setaria viridis); conditions: amount of applied herbicide 320 g/ha
# Outline: as §1
# windgrass [9] = experiment: Test Example 5: herbicidal effect by foliage application, plastic box (Table 20, symbol L); assay type: in vivo, windgrass (Apera spica-venti); conditions: foliage application, 320 g/ha
# Outline: as §2
# wild oat [10] = experiment: Test Example 4: herbicidal effect by soil treatment (Table 19, symbol I); assay type: in vivo, wild oat (Avena fatua); conditions: amount of applied herbicide 320 g/ha
# Outline: as §1
# wild oat [11] = experiment: Test Example 5: herbicidal effect by foliage application, plastic box (Table 20, symbol I); assay type: in vivo, wild oat (Avena fatua); conditions: foliage application, 320 g/ha
# Outline: as §2
# velvetleaf [12] = experiment: Test Example 4: herbicidal effect by soil treatment (Table 19, symbol M); assay type: in vivo, velvetleaf (Abutilon theophrasti); conditions: amount of applied herbicide 320 g/ha
# Outline: as §1
# rice flat sedge = experiment: Test Example 3: herbicidal effect by foliage application, Wagner pot (Table 18, symbol E); assay type: in vivo, rice flat sedge (Cyperus iria); conditions: amount of applied herbicide 320 g/ha
# Outline: as §3
# velvetleaf [13] = experiment: Test Example 5: herbicidal effect by foliage application, plastic box (Table 20, symbol M); assay type: in vivo, velvetleaf (Abutilon theophrasti); conditions: foliage application, 320 g/ha
# Outline: as §2
# barnyard grass [14] = experiment: Test Example 4: herbicidal effect by soil treatment (Table 19, symbol H); assay type: in vivo, barnyard grass (Echinochloa crus-galli); conditions: amount of applied herbicide 320 g/ha
# Outline: as §1
# false cleavers = experiment: Test Example 4: herbicidal effect by soil treatment (Table 19, symbol Q); assay type: in vivo, false cleavers (Galium spurium); conditions: amount of applied herbicide 320 g/ha
# Outline: as §1
# southern crabgrass [15] = experiment: Test Example 5: herbicidal effect by foliage application, plastic box (Table 20, symbol F); assay type: in vivo, southern crabgrass (Digitaria ciliaris); conditions: foliage application, 320 g/ha
# Outline: as §2
# Italian ryegrass [16] = experiment: Test Example 5: herbicidal effect by foliage application, plastic box (Table 20, symbol K); assay type: in vivo, Italian ryegrass (Lolium multiflorum); conditions: foliage application, 320 g/ha
# Outline: as §2
# redroot pigweed [17] = experiment: Test Example 4: herbicidal effect by soil treatment (Table 19, symbol N); assay type: in vivo, redroot pigweed (Amaranthus retroflexus); conditions: amount of applied herbicide 320 g/ha
# Outline: as §1
# green foxtail [18] = experiment: Test Example 5: herbicidal effect by foliage application, plastic box (Table 20, symbol G); assay type: in vivo, green foxtail (Setaria viridis); conditions: foliage application, 320 g/ha
# Outline: as §2
# lambsquarters [19] = experiment: Test Example 5: herbicidal effect by foliage application, plastic box (Table 20, symbol O); assay type: in vivo, lambsquarters (Chenopodium album); conditions: foliage application, 320 g/ha
# Outline: as §2
# chickweed [20] = experiment: Test Example 5: herbicidal effect by foliage application, plastic box (Table 20, symbol P); assay type: in vivo, common chickweed (Stellaria media); conditions: foliage application, 320 g/ha
# Outline: as §2
# barnyard grass [21] = experiment: Test Example 5: herbicidal effect by foliage application, plastic box (Table 20, symbol H); assay type: in vivo, barnyard grass (Echinochloa crus-galli); conditions: foliage application, 320 g/ha
# Outline: as §2
# lambsquarters [22] = experiment: Test Example 4: herbicidal effect by soil treatment (Table 19, symbol O); assay type: in vivo, lambsquarters (Chenopodium album); conditions: amount of applied herbicide 320 g/ha
# Outline: as §1
# persian speedwell [23] = experiment: Test Example 5: herbicidal effect by foliage application, plastic box (Table 20, symbol R); assay type: in vivo, Persian speedwell (Veronica persica); conditions: foliage application, 320 g/ha
# Outline: as §2
# chickweed [24] = experiment: Test Example 4: herbicidal effect by soil treatment (Table 19, symbol P); assay type: in vivo, common chickweed (Stellaria media); conditions: amount of applied herbicide 320 g/ha
# Outline: as §1
# persian speedwell [25] = experiment: Test Example 4: herbicidal effect by soil treatment (Table 19, symbol R); assay type: in vivo, Persian speedwell (Veronica persica); conditions: amount of applied herbicide 320 g/ha
# Outline: as §1
# [26] = evaluated 3 weeks after application
smiles,measurement,setting,value
CSCCSc1ccc(-c2sc3ccc(F)cc3c2-c2c(O)c(C)nn(C)c2=O)cc1 [2-421],"herbicidal effect, L: windgrass",windgrass [1],0 (Herbicidal rate of 5% or less (almost no effect))
same,"herbicidal effect, K: Italian ryegrass",Italian ryegrass [2],0 (Herbicidal rate of 5% or less (almost no effect))
same,"J: blackgrass, herbicidal effect grade",blackgrass [3]; three weeks after application,4 (Herbicidal rate of 70% or more and less than 90%)
same,"herbicidal effect, F: southern crabgrass",southern crabgrass [4],2 (Herbicidal rate of 20% or more and less than 40%)
same,"herbicidal effect, J: blackgrass",blackgrass [5],0 (Herbicidal rate of 5% or less (almost no effect))
same,herbicidal effect on D: Chinese sprangletop,Chinese sprangletop,2 (Herbicidal rate of 20% or more and less than 40%)
same,"N: redroot pigweed, herbicidal effect grade",redroot pigweed [6]; three weeks after application,5 (Herbicidal rate of 90% or more (almost completely withered))
same,herbicidal effect on H: barnyard grass,barnyard grass [7],5 (Herbicidal rate of 90% or more (almost completely withered))
same,"herbicidal effect, G: green foxtail",green foxtail [8],3 (Herbicidal rate of 40% or more and less than 70%)
same,"L: windgrass, herbicidal effect grade",windgrass [9]; three weeks after application,5 (Herbicidal rate of 90% or more (almost completely withered))
same,"herbicidal effect, I: wild oat",wild oat [10],0 (Herbicidal rate of 5% or less (almost no effect))
same,"I: wild oat, herbicidal effect grade",wild oat [11]; three weeks after application,5 (Herbicidal rate of 90% or more (almost completely withered))
same,"herbicidal effect, M: velvetleaf",velvetleaf [12],2 (Herbicidal rate of 20% or more and less than 40%)
same,herbicidal effect on E: rice flat sedge,rice flat sedge,5 (Herbicidal rate of 90% or more (almost completely withered))
same,"M: velvetleaf, herbicidal effect grade",velvetleaf [13]; three weeks after application,3 (Herbicidal rate of 40% or more and less than 70%)
same,"herbicidal effect, H: barnyard grass",barnyard grass [14],1 (Herbicidal rate of 5% or more and less than 20%)
same,"herbicidal effect, Q: false cleavers",false cleavers,0 (Herbicidal rate of 5% or less (almost no effect))
same,"F: southern crabgrass, herbicidal effect grade",southern crabgrass [15]; three weeks after application,5 (Herbicidal rate of 90% or more (almost completely withered))
same,"K: Italian ryegrass, herbicidal effect grade",Italian ryegrass [16]; three weeks after application,3 (Herbicidal rate of 40% or more and less than 70%)
same,"herbicidal effect, N: redroot pigweed",redroot pigweed [17],5 (Herbicidal rate of 90% or more (almost completely withered))
same,"G: green foxtail, herbicidal effect grade",green foxtail [18]; three weeks after application,5 (Herbicidal rate of 90% or more (almost completely withered))
same,"O: lambsquarters, herbicidal effect grade",lambsquarters [19]; three weeks after application,4 (Herbicidal rate of 70% or more and less than 90%)
same,"P: chickweed, herbicidal effect grade",chickweed [20]; three weeks after application,5 (Herbicidal rate of 90% or more (almost completely withered))
same,"H: barnyard grass, herbicidal effect grade",barnyard grass [21]; three weeks after application,5 (Herbicidal rate of 90% or more (almost completely withered))
same,"herbicidal effect, O: lambsquarters",lambsquarters [22],1 (Herbicidal rate of 5% or more and less than 20%)
same,"R: persian speedwell, herbicidal effect grade",persian speedwell [23]; three weeks after application,5 (Herbicidal rate of 90% or more (almost completely withered))
CCCC(=O)Oc1c(C)nn(C)c(=O)c1-c1c(-c2ccc(OC)c(OC)c2)sc2cc(OC)ccc12 [3-081],"L: windgrass, herbicidal effect grade",windgrass [1],0 (Herbicidal rate of 5% or less (almost no effect))
same,"K: Italian ryegrass, herbicidal effect grade",Italian ryegrass [2],0 (Herbicidal rate of 5% or less (almost no effect))
same,"F: southern crabgrass, herbicidal effect grade",southern crabgrass [4],0 (Herbicidal rate of 5% or less (almost no effect))
same,"J: blackgrass, herbicidal effect grade",blackgrass [5],0 (Herbicidal rate of 5% or less (almost no effect))
same,"G: green foxtail, herbicidal effect grade",green foxtail [8],0 (Herbicidal rate of 5% or less (almost no effect))
same,"I: wild oat, herbicidal effect grade",wild oat [10],0 (Herbicidal rate of 5% or less (almost no effect))
same,"M: velvetleaf, herbicidal effect grade",velvetleaf [12],0 (Herbicidal rate of 5% or less (almost no effect))
same,"H: barnyard grass, herbicidal effect grade",barnyard grass [14],0 (Herbicidal rate of 5% or less (almost no effect))
same,"Q: false cleavers, herbicidal effect grade",false cleavers,0 (Herbicidal rate of 5% or less (almost no effect))
same,"P: chickweed, herbicidal effect grade",chickweed [24],0 (Herbicidal rate of 5% or less (almost no effect))
same,"N: redroot pigweed, herbicidal effect grade",redroot pigweed [17],0 (Herbicidal rate of 5% or less (almost no effect))
same,"R: persian speedwell, herbicidal effect grade",persian speedwell [25],2 (Herbicidal rate of 20% or more and less than 40%)
same,"O: lambsquarters, herbicidal effect grade",lambsquarters [22],0 (Herbicidal rate of 5% or less (almost no effect))
Cc1ccc2oc(-c3ccc(OC(F)F)cc3)c(-c3c(O)c(C)nn(C)c3=O)c2c1 [9-053],"L: windgrass, herbicidal effect grade",windgrass [1],0 (Herbicidal rate of 5% or less (almost no effect))
same,"K: Italian ryegrass, herbicidal effect grade",Italian ryegrass [2],5 (Herbicidal rate of 90% or more (almost completely withered))
same,J (blackgrass) herbicidal effect grade,blackgrass [3]; [26],4 (Herbicidal rate of 70% or more and less than 90%)
same,"F: southern crabgrass, herbicidal effect grade",southern crabgrass [4],2 (Herbicidal rate of 20% or more and less than 40%)
same,"Herbicidal effect on D (Chinese sprangletop), foliage application",Chinese sprangletop,0 (Herbicidal rate of 5% or less (almost no effect))
same,N (redroot pigweed) herbicidal effect grade,redroot pigweed [6]; [26],5 (Herbicidal rate of 90% or more (almost completely withered))
same,"Herbicidal effect on H (barnyard grass), foliage application",barnyard grass [7],4 (Herbicidal rate of 70% or more and less than 90%)
same,"G: green foxtail, herbicidal effect grade",green foxtail [8],4 (Herbicidal rate of 70% or more and less than 90%)
same,L (windgrass) herbicidal effect grade,windgrass [9]; [26],3 (Herbicidal rate of 40% or more and less than 70%)
same,"I: wild oat, herbicidal effect grade",wild oat [10],0 (Herbicidal rate of 5% or less (almost no effect))
same,I (wild oat) herbicidal effect grade,wild oat [11]; [26],0 (Herbicidal rate of 5% or less (almost no effect))
same,"M: velvetleaf, herbicidal effect grade",velvetleaf [12],4 (Herbicidal rate of 70% or more and less than 90%)
same,"Herbicidal effect on E (rice flat sedge), foliage application",rice flat sedge,4 (Herbicidal rate of 70% or more and less than 90%)
same,M (velvetleaf) herbicidal effect grade,velvetleaf [13]; [26],5 (Herbicidal rate of 90% or more (almost completely withered))
same,"H: barnyard grass, herbicidal effect grade",barnyard grass [14],4 (Herbicidal rate of 70% or more and less than 90%)
same,"Q: false cleavers, herbicidal effect grade",false cleavers,0 (Herbicidal rate of 5% or less (almost no effect))
same,F (southern crabgrass) herbicidal effect grade,southern crabgrass [15]; [26],3 (Herbicidal rate of 40% or more and less than 70%)
same,K (Italian ryegrass) herbicidal effect grade,Italian ryegrass [16]; [26],5 (Herbicidal rate of 90% or more (almost completely withered))
same,"P: chickweed, herbicidal effect grade",chickweed [24],3 (Herbicidal rate of 40% or more and less than 70%)
same,"N: redroot pigweed, herbicidal effect grade",redroot pigweed [17],5 (Herbicidal rate of 90% or more (almost completely withered))
same,G (green foxtail) herbicidal effect grade,green foxtail [18]; [26],4 (Herbicidal rate of 70% or more and less than 90%)
same,O (lambsquarters) herbicidal effect grade,lambsquarters [19]; [26],5 (Herbicidal rate of 90% or more (almost completely withered))
same,"R: persian speedwell, herbicidal effect grade",persian speedwell [25],4 (Herbicidal rate of 70% or more and less than 90%)
same,P (chickweed) herbicidal effect grade,chickweed [20]; [26],5 (Herbicidal rate of 90% or more (almost completely withered))
same,H (barnyard grass) herbicidal effect grade,barnyard grass [21]; [26],3 (Herbicidal rate of 40% or more and less than 70%)
same,"O: lambsquarters, herbicidal effect grade",lambsquarters [22],5 (Herbicidal rate of 90% or more (almost completely withered))
same,R (persian speedwell) herbicidal effect grade,persian speedwell [23]; [26],5 (Herbicidal rate of 90% or more (almost completely withered))
